In ChEMBL document CHEMBL1201862, “PubChem BioAssay data set” (2004):
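Test compounds were applied to cells in 96-well plates for 48 hours at 5 doses. GI50 is the concentration that inhibits growth by half.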 Activity calls are given as the source filed them. No stated cut-off is given here; in the data, active = GI50 up to about 1.1 µM and inactive = higher.

What was measured:
Assay in all cases: NCI-60 cell line screen, 48 h
CCRF-CEM = system: CCRF-CEM
KM12 = system: KM12
SF-268 = system: SF-268
PC-3 = system: PC-3
SK-OV-3 = system: SK-OV-3
SF-539 = system: SF-539
U-251 = system: U-251
786-0 = system: 786-0
SR = system: SR
A549 = system: A549
SK-MEL-2 = system: SK-MEL-2
TK-10 = system: TK-10
NCI/ADR-RES = system: NCI/ADR-RES
SNB-19 = system: SNB-19
RPMI-8226 = system: RPMI-8226
MDA-N = system: MDA-N
MCF7 = system: MCF7
UACC-257 = system: UACC-257
DU-145 = system: DU-145
OVCAR-4 = system: OVCAR-4
HOP-62 = system: HOP-62
HOP-92 = system: HOP-92
SK-MEL-28 = system: SK-MEL-28
MDA-MB-231 = system: MDA-MB-231
OVCAR-8 = system: OVCAR-8
SNB-75 = system: SNB-75
UACC-62 = system: UACC-62
SF-295 = system: SF-295
SK-MEL-5 = system: SK-MEL-5
Hs-578T = system: Hs-578T
K562 = system: K562
A498 = system: A498
MDA-MB-435 = system: MDA-MB-435
SW-620 = system: SW-620
M14 = system: M14
EKVX = system: EKVX
NCI-H460 = system: NCI-H460
HT-29 = system: HT-29
NCI-H23 = system: NCI-H23
MOLT-4 = system: MOLT-4
UO-31 = system: UO-31
CAKI-1 = system: CAKI-1
T47D = system: T47D
COLO 205 = system: COLO 205
OVCAR-3 = system: OVCAR-3
HCT-116 = system: HCT-116
OVCAR-5 = system: OVCAR-5
LOX IMVI = system: LOX IMVI
IGROV-1 = system: IGROV-1
HL-60 = system: HL-60
RXF 393 = system: RXF 393
Malme-3M = system: Malme-3M
NCI-H522 = system: NCI-H522
ACHN = system: ACHN
SN12C = system: SN12C
BT-549 = system: BT-549
HCT-15 = system: HCT-15
NCI-H226 = system: NCI-H226

## CC(C)=CCNc1ncnc2c1c(C#N)cn2C1OC(CO)C(O)C1O (stereo not drawn)
CCRF-CEM
  GI50: 3.85 µM (inactive)
KM12
  GI50: 1.36 µM (inactive)
SF-268
  GI50: > 100 µM (inactive)
PC-3
  GI50: 32.5 µM (inactive)
SK-OV-3
  GI50: 16.9 µM (inactive)
SF-539
  GI50: > 72.1 µM (inactive)
U-251
  GI50: > 67.5 µM (inactive)
786-0
  GI50: > 100 µM (inactive)
SR
  GI50: 5.45 µM (inactive)
A549
  GI50: 8.32 µM (inactive)
SK-MEL-2
  GI50: 39.7 µM (inactive)
TK-10
  GI50: 1.21 µM (inactive)
NCI/ADR-RES
  GI50: > 82 µM (inactive)
SNB-19
  GI50: > 53.8 µM (inactive)
RPMI-8226
  GI50: 3.56 µM (inactive)
MDA-N
  GI50: 42.1 µM (inactive)
MCF7
  GI50: < 0.019 µM (active)
UACC-257
  GI50: > 100 µM (inactive)
DU-145
  GI50: 10.9 µM (inactive)
OVCAR-4
  GI50: 1.1 µM (active)
HOP-62
  GI50: 53.1 µM (inactive)
HOP-92
  GI50: 24.3 µM (inactive)
SK-MEL-28
  GI50: > 100 µM (inactive)
MDA-MB-231
  GI50: 33.7 µM (inactive)
OVCAR-8
  GI50: 50.7 µM (inactive)
SNB-75
  GI50: 75.7 µM (inactive)
UACC-62
  GI50: 39.7 µM (inactive)
SF-295
  GI50: > 100 µM (inactive)
SK-MEL-5
  GI50: 21.7 µM (inactive)
Hs-578T
  GI50: 56.9 µM (inactive)
K562
  GI50: 3.86 µM (inactive)
A498
  GI50: 24 µM (inactive)
MDA-MB-435
  GI50: 31.1 µM (inactive)
SW-620
  GI50: 10 µM (inactive)
M14
  GI50: > 58.3 µM (inactive)
EKVX
  GI50: 10.4 µM (inactive)
NCI-H460
  GI50: 4.02 µM (inactive)
HT-29
  GI50: 12.3 µM (inactive)
NCI-H23
  GI50: > 56.5 µM (inactive)
MOLT-4
  GI50: 65.2 µM (inactive)
UO-31
  GI50: 32.8 µM (inactive)
CAKI-1
  GI50: 73.8 µM (inactive)
T47D
  GI50: 0.0386 µM (active)
COLO 205
  GI50: 0.716 µM (active)
OVCAR-3
  GI50: 3.66 µM (inactive)
HCT-116
  GI50: 4.61 µM (inactive)
OVCAR-5
  GI50: > 66.2 µM (inactive)
LOX IMVI
  GI50: > 79.8 µM (inactive)
IGROV-1
  GI50: 0.431 µM (active)
HL-60
  GI50: 9.12 µM (inactive)
RXF 393
  GI50: 71.1 µM (inactive)
Malme-3M
  GI50: > 77.6 µM (inactive)
NCI-H522
  GI50: 7.64 µM (inactive)
ACHN
  GI50: 9.82 µM (inactive)
SN12C
  GI50: 12.7 µM (inactive)
BT-549
  GI50: > 100 µM (inactive)
HCT-15
  GI50: 0.603 µM
NCI-H226
  GI50: 39.2 µM (inactive)
